System: Jurkat cell line
Test: PARP cellular chemopotentiation assay (MTS cell viability with and without TMZ)
Format: cell-based
Details: ratio of EC50 for inhibition of cell viability without and with 100 μM TMZ; Jurkat cells, 96 hours of treatment
Method: Potentiation Factor (PF50) Determination from PARP Cellular Chemopotentiation Assay
Jurkat cell line was maintained according to the supplier (American Type Culture Collection (Rockville, Md.)). Cells were seeded in 96-well tissue culture microplates at 10,000 cells per well and cultured for 24 hours prior to addition of compounds, TMZ (Temozolomide) or DMSO (dimethylsulfoxide) vehicle. After 96 hours of treatment, the conversion of MTS ([3-(4,5-dimethylthiazol-2-yl)-5-(3-carboxymethoxyphenyl)-2-(4-sulfophenyl)-2H-tetrazolium, inner salt], Promega, Madison, Wis.) by metabolically active cells was determined through measuring the OD490 nm with a Spectramax microplate reader (Molecular Devices, San Diego, Calif.). To generate concentration-response curves, cells were treated in duplicate with a range of serial compound dilutions (final DMSO concentration was 0.5%) in the absence or presence of 100 μM TMZ chemoreagent. The percentage of viable cells per well was calculated by correction for background and normalizing against DMSO-treated cells. EC50 values for inhibition of cell viability were calculated using XLfit4 MicroSoft Excel curve-fitting software. Chemopotentiation factor PF50 was calculated as the ratio of EC50 values of cells co-treated without and with TMZ, respectively.

SMILES	PF50
O=C1Nc2cc(CN3CCN(c4ccc(Cl)cc4)CC3)cnc2N2CCC[C@H]12 [Compound 50, (R)-3-((4-(4-chlorophenyl)piperazin-1-yl)methyl)-6a,7,8,9-tetrahydropyrido[3,2-e]pyrrolo[1,2-a]pyrazin-6(5H)-one]	≧0
O=C1Nc2cc(CN3CCC(c4ccc(Cl)cc4)CC3)cnc2N2CCC[C@H]12 [Compound 51, (R)-3-((4-(4-chlorophenyl)piperidin-1-yl)methyl)-6a,7,8,9-tetrahydropyrido[3,2-e]pyrrolo[1,2-a]pyrazin-6(5H)-one]	≧0
CC(C)NC(=O)c1ccc(N2CCN(Cc3cnc4c(c3)NC(=O)[C@@H]3CCCCN43)CC2)nc1 [Compound 76, (S)—N-isopropyl-6-(4-((6-oxo-6,6a,7,8,9,10-hexahydro-5H-dipyrido[1,2-a:3′,2′-e]pyrazin-3-yl)methyl)piperazin-1-yl)nicotinamide]	≧0
CCNC(=O)c1ccc(N2CCN(Cc3cnc4c(c3)NC(=O)[C@@H]3CCCCN43)CC2)nc1 [Compound 78, (S)—N-ethyl-6-(4-((6-oxo-6,6a,7,8,9,10-hexahydro-5H-dipyrido[1,2-a:3′,2′-e]pyrazin-3-yl)methyl)piperazin-1-yl)nicotinamide]	>10
O=C(NC1CC1)c1ccc(N2CCN(Cc3cnc4c(c3)NC(=O)[C@@H]3CCCCN43)CC2)nc1 [Compound 79, (S)—N-cyclopropyl-6-(4-((6-oxo-6,6a,7,8,9,10-hexahydro-5H-dipyrido[1,2-a:3′,2′-e]pyrazin-3-yl)methyl)piperazin-1-yl)nicotinamide]	>10
N#Cc1ccc(N2CCN(Cc3cnc4c(c3)NC(=O)[C@@H]3CSCCN43)CC2)nc1 [Compound 89, (R)-6-(4-((6-oxo-5,6,6a,7,9,10-hexahydropyrido[3,2-e][1,4]thiazino[4,3-a]pyrazin-3-yl)methyl)piperazin-1-yl)nicotinonitrile]	>10
O=C1Nc2cc(CN3CC=C(c4ccc(Cl)cc4)CC3)cnc2N2CCSC[C@@H]12 [Compound 91, (R)-3-((4-(4-chlorophenyl)-5,6-dihydropyridin-1(2H)-yl)methyl)-6a,7,9,10-tetrahydropyrido[3,2-e][1,4]thiazino[4,3-a]pyrazin-6(5H)-one]	>2000
O=C1Nc2cc(CN3CCN(c4ccc(Cl)cc4)CC3)cnc2N2CCOCC12 (stereo not drawn) [Compound 93, 3-((4-(4-chlorophenyl)piperazin-1-yl)methyl)-6a,7,9,10-tetrahydro-[1,4]oxazino[4,3-a]pyrido[3,2-e]pyrazin-6(5H)-one]	≧0
CN1CCN2c3ncc(CN4CCN(c5ccc(Cl)cc5)CC4)cc3NC(=O)C2C1 (stereo not drawn) [Compound 97, 7-[4-(4-Chloro-phenyl)-piperazin-1-ylmethyl]-2-methyl-1,3,4,10a-tetrahydro-2H,9H-2,4a,5,9-tetraaza-phenanthren-10-one]	≧0
CNC(=O)c1ccc(N2CCN(Cc3cnc4c(c3)NC(=O)[C@@H]3CSCCN43)CC2)cc1 [Compound 98, (R)—N-methyl-4-(4-((6-oxo-5,6,6a,7,9,10-hexahydropyrido[3,2-e][1,4]thiazino[4,3-a]pyrazin-3-yl)methyl)piperazin-1-yl)benzamide]	>5000
O=C(NC1CC1)c1ccc(N2CCN(Cc3cnc4c(c3)NC(=O)[C@@H]3CSCCN43)CC2)cc1 [Compound 99, (R)—N-cyclopropyl-4-(4-((6-oxo-5,6,6a,7,9,10-hexahydropyrido[3,2-e][1,4]thiazino[4,3-a]pyrazin-3-yl)methyl)piperazin-1-yl)benzamide]	>5000
N#Cc1ccc(N2CCN(Cc3cnc4c(c3)NC(=O)C3COCCN43)CC2)nc1 (stereo not drawn) [Compound 100, 6-(4-((6-oxo-5,6,6a,7,9,10-hexahydro-[1,4]oxazino[4,3-a]pyrido[3,2-e]pyrazin-3-yl)methyl)piperazin-1-yl)nicotinonitrile]	>10

From patent publication US9187497B2, “Substituted pyrido[3,2-e]pyrrolo[1,2-a]pyrazines as inhibitors of poly(ADP-ribose)polymerase (PARP)” (Takeda Phamaceutical Company Limited, priority 2009, dated 2015)
